Columns and labels:
Format in all cases: in vivo
[1] = system: smartweed (ladysthumb smartweed, Polygonum persicaria); assay: Test E pre-/postemergence: smartweed; details: Postemergence, scale 0 to 100
Text: (§1) Seeds of plant species selected from corn (Zea mays), soybean (Glycine max), velvetleaf (Abutilon theophrasti), lambsquarters (Chenopodium album), poinsettia, wild (wild poinsettia, Euphorbia heterophylla), pigweed, palmer (palmer pigweed, Amaranthus palmeri), waterhemp (common waterhemp, Amaranthus rudis), smartweed (ladysthumb smartweed, Polygonum persicaria), surinam grass (Brachiaria decumbens), crabgrass, large (large crabgrass, Digitaria sanguinalis), crabgrass, Brazil (Brazilian crabgrass, Digitaria horizontalis), panicum, fall (fall panicum, Panicum dichotomiflorum), foxtail, giant (giant foxtail, Setaria faberii), foxtail, green (green foxtail, Setaria viridis), goosegrass (Eleusine indica), johnsongrass (Sorghum halepense), ragweed (common ragweed, Ambrosia elation), barnyardgrass (Echinochloa crus-galli), sandbur (southern sandbur, Cenchrus echinatus), arrowleaf sida (Sida rhombifolia), ryegrass, Italian (Italian ryegrass, Lolium multiflorum), dayflower, (VA) (Virginia dayflower, Commelina virginica), field bindweed (Convolvulus arvensis), cocklebur (common cocklebur, Xanthium strumarium), morningglory (Ipomoea coccinea), nightshade (eastern black nightshade, Solanum ptycanthum), kochia (Kochia scoparia), nutsedge, yellow (yellow nutsedge, Cyperus esculentus) and beggarticks (hairy beggarticks, Bidens pilosa) were planted into a silt loam soil and treated preemergence with test chemicals formulated in a non-phytotoxic solvent mixture which included a surfactant. At the same time, plants selected from these crop and weed species were planted in pots containing a growing medium comprising spaghnum peat moss, vermiculite, wetting agent and starter nutrients and treated with postemergence applications of some of the test chemicals formulated in the same manner. Plants ranged in height from 2 to 18 cm for postemergence treatments (1- to 4-leaf stage).
(§2) Treated plants and controls were maintained in a greenhouse for 14 to 21 days, after which time all species were compared to controls and visually evaluated. Plant response ratings, summarized in Table E, are based on a scale of 0 to 100 where 0 is no effect and 100 is complete control. A dash (-) response means no test result.

[2] = system: beggarticks (hairy beggarticks, Bidens pilosa); assay: Test E pre-/postemergence: beggarticks; details: Postemergence, scale 0 to 100
Text: as §1, §2

[3] = system: wheat (TRZAW, Triticum aestivum); assay: Test H post-emergence, alone and in combination: wheat
Text: (§3) Seeds of plant species selected from wheat (TRZAW, Triticum aestivum), barley (HORBW, Hordeum vulgare), Kochia (KCHSC, Kochia caoparia) blackgrass (ALOMY, Alopecurus myosuroides), canarygrass (PHAMI, Phalaris minor), Italian ryegrass (LOLMU, Lolium multiflorum) common lambsquarter (CHEAL, Chenopodium album), pigweed (AMARE, Amaranthus retroflexus), Common Chickweed (STEME, Stellaria media), Russian thistle (SASKR, Salsola iberica), Wild Buckwheat (POLCO, Polygonum convolvulus), Catchweed Bedstraw (GALAP, Galium aparine), Mustard (SINAR, Sinapisar arvensis), Henbit Deadnettle (LAMAM, Lamium amplexicaule), Wild Radish (RAPRA, Raphanus raphanistrum), Field Poppy (PAPRH, Papaver rhoeas), Field Violet (VIOAR, Viola arvennsis), Scentless Chamomile (MATIN Matricaria inodora) were planted into soil and treated post-emergence with test chemicals formulated in a non-phytotoxic solvent mixture. Plants were grown in a greenhouse using supplemental lighting to maintain a photoperiod of approximately 14 hours; daytime and nighttime temperatures were approximately 23°-29° and 16°-19° Celsius, respectively. Balanced fertilizer was applied through the watering system. Treated plants and controls were maintained in a greenhouse for 20 days, after which time all species were compared to controls and visually evaluated. Plant response ratings were calculated as the mean of three replicates (unless otherwise indicated), are summarized in Table G, and are based on a scale of 0 to 100 where 0 is no effect and 100 is complete control. A dash (-) response means no test result.

[4] = system: Russian thistle (SASKR, Salsola iberica); assay: Test H post-emergence, alone and in combination: Russian thistle
Text: as §3

[5] = system: canarygrass (PHAMI, Phalaris minor); assay: Test H post-emergence, alone and in combination: canarygrass
Text: as §3

[6] = system: Henbit Deadnettle (LAMAM, Lamium amplexicaule); assay: Test H post-emergence, alone and in combination: Henbit Deadnettle
Text: as §3

[7] = system: pigweed (AMARE, Amaranthus retroflexus); assay: Test H post-emergence, alone and in combination: pigweed
Text: as §3

[8] = system: Italian ryegrass (LOLMU, Lolium multiflorum); assay: Test H post-emergence, alone and in combination: Italian ryegrass
Text: as §3

[9] = system: Catchweed Bedstraw (GALAP, Galium aparine); assay: Test H post-emergence, alone and in combination: Catchweed Bedstraw
Text: as §3

[10] = system: Scentless Chamomile (MATIN Matricaria inodora); assay: Test H post-emergence, alone and in combination: Scentless Chamomile
Text: as §3

[11] = system: Field Violet (VIOAR, Viola arvennsis); assay: Test H post-emergence, alone and in combination: Field Violet
Text: as §3

[12] = system: common lambsquarter (CHEAL, Chenopodium album); assay: Test H post-emergence, alone and in combination: common lambsquarter
Text: as §3

[13] = system: barley (HORBW, Hordeum vulgare); assay: Test H post-emergence, alone and in combination: barley
Text: as §3

[14] = system: blackgrass (ALOMY, Alopecurus myosuroides); assay: Test H post-emergence, alone and in combination: blackgrass
Text: as §3

[15] = system: Wild Radish (RAPRA, Raphanus raphanistrum); assay: Test H post-emergence, alone and in combination: Wild Radish
Text: as §3

[16] = system: Kochia (KCHSC, Kochia caoparia); assay: Test H post-emergence, alone and in combination: Kochia
Text: as §3

[17] = system: Wild Buckwheat (POLCO, Polygonum convolvulus); assay: Test H post-emergence, alone and in combination: Wild Buckwheat
Text: as §3

With `Cc1nn(-c2ccc(C(F)(F)F)cc2)nc1Cc1ccnc(C(F)(F)F)c1` [Compound 47, 4-[[5-methyl-2-[4-(trifluoromethyl)phenyl]-2H-1,2,3-triazol-4-yl]methyl]-2-(trifluoromethyl)pyridine] the “Plant response rating: Smartweed” value ([1]; 250 g ai/ha) was 85, the “Plant response rating: Smartweed” value ([1]; 16 g ai/ha) was 30 and the “Plant response rating: Smartweed” value ([1]; 31 g ai/ha) was 40. The “Plant response rating: Smartweed” value ([1]; 62 g ai/ha) was 50, the “Plant response rating: Smartweed” value ([1]; 125 g ai/ha) was 80 and the “Plant response rating: Beggarticks” value ([2]; 250 g ai/ha) was 50. For the same molecule, the “Plant response rating: Beggarticks” value ([2]; 16 g ai/ha) was 30, the “Plant response rating: Beggarticks” value ([2]; 31 g ai/ha) was 30 and the “Plant response rating: Beggarticks” value ([2]; 62 g ai/ha) was 40. The “Plant response rating: Beggarticks” value ([2]; 125 g ai/ha) was 50.
`Cc1nn(-c2ccc(F)cc2)nc1Oc1ccnc(C(F)(F)F)c1` [Compound 129, 4-[[2-(4-fluorophenyl)-5-methyl-2H-1,2,3-triazol-4-yl]oxy]-2-(trifluoromethyl)pyridine] was tested, and the TRZAW plant response ([3]; Rate 31) was 10, the TRZAW plant response ([3]; Rate 62) was 15 and the TRZAW plant response ([3]; Rate 125) was 15. For the same molecule, the SASKR plant response ([4]; Rate 31) was 65, the SASKR plant response ([4]; Rate 62) was 80 and the SASKR plant response ([4]; Rate 125) was 90. It also gave a PHAMI plant response ([5]; Rate 31) of 15, a PHAMI plant response ([5]; Rate 62) of 20 and a PHAMI plant response ([5]; Rate 125) of 60. For the same molecule, the LAMAM plant response ([6]; Rate 31) was 60, the LAMAM plant response ([6]; Rate 62) was 70 and the LAMAM plant response ([6]; Rate 125) was 80. The AMARI plant response ([7]; Rate 31) was 80, the AMARI plant response ([7]; Rate 62) was 90 and the AMARI plant response ([7]; Rate 125) was 95. For the same molecule, the LOLMU plant response ([8]; Rate 31) was 10, the LOLMU plant response ([8]; Rate 62) was 10 and the LOLMU plant response ([8]; Rate 125) was 15. The GALAP plant response ([9]; Rate 31) was 65, the GALAP plant response ([9]; Rate 62) was 60 and the GALAP plant response ([9]; Rate 125) was 70. For the same molecule, the MATIN plant response ([10]; Rate 31) was 0, the MATIN plant response ([10]; Rate 62) was 5 and the MATIN plant response ([10]; Rate 125) was 10. For the same molecule, the VIOAR plant response ([11]; Rate 31) was 60, the VIOAR plant response ([11]; Rate 62) was 75 and the VIOAR plant response ([11]; Rate 125) was 90. For the same molecule, the CHEAL plant response ([12]; Rate 31) was 85, the CHEAL plant response ([12]; Rate 62) was 80 and the CHEAL plant response ([12]; Rate 125) was 90. For the same molecule, the HORBW plant response ([13]; Rate 31) was 10, the HORBW plant response ([13]; Rate 62) was 15 and the HORBW plant response ([13]; Rate 125) was 15. For the same molecule, the ALOMY plant response ([14]; Rate 31) was 5, the ALOMY plant response ([14]; Rate 62) was 10 and the ALOMY plant response ([14]; Rate 125) was 30. For the same molecule, the RAPRA plant response ([15]; Rate 31) was 60, the RAPRA plant response ([15]; Rate 62) was 85 and the RAPRA plant response ([15]; Rate 125) was 90. The KCHSC plant response ([16]; Rate 31) was 80, the KCHSC plant response ([16]; Rate 62) was 85 and the KCHSC plant response ([16]; Rate 125) was 95. It also gave a POLCO plant response ([17]; Rate 31) of 30, a POLCO plant response ([17]; Rate 62) of 25 and a POLCO plant response ([17]; Rate 125) of 70.

Reference: US9302999B2, “Substituted triazoles as herbicides” (E. I. DU PONT DE NEMOURS AND COMPANY, priority 2012, dated 2016)
